Consider eleven compounds from US6753182B1, “Cryopreservation of plant cells” (Phyton, Inc., priority 1995, dated 2004).

Like-named read-outs stand apart in the source and are kept apart here. Bounds are passed on as bounds.

Series [1] deals with Taxus species cell line KS1A. Briefly: Post-thaw viability of cryopreserved Taxus cell line KS1A (FDA staining). It is filed as cell-based. Here is the method:
(§1) Cells of Taxus suspension cultures (KS1A) were harvested and precultured with various osmotic agents in the medium. Osmotic agents tested include trehalose, proline, sorbitol (0.15 M-0.8 M), sucrose (2-20%) and mannitol (0.16 M). Viability was evaluated for each cell suspension at the end of the preculture period and immediately after thawing. Regrowth was evaluated after post-thaw osmotic adjustment. The vitrification solutions used were ethylene glycol/sorbitol/pectin and ethylene glycol/sorbitol at 40/30 weight percent in culture medium.
Six to seven day cell suspensions of Taxus species cell line KS1A were pretreated with 3% mannitol for three days at room temperature. Loaded cells were acclimated to the cold by incubating the flasks at 4° C. for 3 hours. Cold acclimated cells were transferred to 4 ml cryovials and cold vitrification solution was added to each and mixed. After vitrification at 4° C. for three minutes, cells were frozen liquid nitrogen immersion. Vials were maintained in liquid nitrogen for at least 10 minutes.
Cryopreserved cells were thawed by transferring vials from liquid nitrogen and agitated in a 40° C. water bath for 1-2 minutes. Post-thaw viability was determined by FDA staining assay.

The test system of series [2] is Taxus cells. The experiment in a line: Post-thaw viability of cryopreserved Taxus cells (FDA / trypan blue staining). As to conditions: for Survival: 3% mannitol, vitrified 40/30 ethylene glycol/sorbitol, post-thaw. Here is the method:
Culturing cells at high density maximizes the productivity of the cell culture process. […] Cell viability was determined by staining with a 0.05% fluorescein diacetate (FDA) in acetone (J. M. Widholm, Stain Technol 47:189-94, 1972) followed by counting the number of green fluorescein cells upon excitation with blue light in a fluorescence microscope.
After 3 days of incubation in growth medium with mannitol, cells were cold acclimated at 4° C. for 3 hours. Acclimated cells were harvested and transferred to 4 ml cryovials containing a cold vitrifying solution of 40/30 wt % ethylene glycol/sorbitol in media. The vials were incubated at 4° C. for 3 minutes and frozen by immersion into liquid nitrogen. Vials were maintained in liquid nitrogen for at least 10 minutes before use in the thawing experiments.
Vials of frozen cells were removed from liquid nitrogen storage and agitated at 40° C. until the contents are liquefied (1-2 minutes). The liquefied cells were then washed 5 to 6 times with sterile media containing 1 M sorbitol, 3 times with media containing 0.5 M sorbitol media, 3 times with 0.1 M sorbitol media, and 3 times with sorbitol free media. Washing was performed by resuspension of cells in wash media, centrifugation at 50×g for 2 minutes and aspiration of wash media from the cell pellet. Cell viability was determined immediately after thawing.
Various osmotic agents in growth medium were evaluated to determine their effects on the survival of Taxus species cells precultured with the agents, after the preculture period and after thawing of the cryoprotected and frozen Taxus cell suspensions. Cells of three-day cell culture suspensions were precultured in growth medium containing various osmotic agents prior to cryoprotection. Cryoprotected cells were frozen and stored in liquid nitrogen for a minimum of one hour. Viability tests were performed at the end of the preculture period (control) and immediately after thawing of the cryoprotected and frozen cell.
Taxus cells were harvested from cell culture and the biomass resuspended in growth medium containing mannitol at a concentration of 3% for one day or three-days at room temperature. Loaded cells were incubated at 4° C. for 3 hours and transferred to 4 ml cryovials containing cold vitrifying solution comprising 40/30 weight percent ethylene glycol/sorbitol in culture medium. The vials were incubated at 4° C. for three minutes and frozen by liquid nitrogen immersion. Cells contained in the vials were maintained in liquid nitrogen for at least 10 minutes.
Cryopreserved cells were thawed and their viability was determined by FDA and tryptan blue staining procedures.
Cultured Tarus cells were harvested and resuspended in fresh growth medium containing 3% mannitol for 3 days. Cells were cold acclimated for 3 hours and transferred to cryovials containing vitrification solution. Cell suspensions were frozen by liquid nitrogen immersion. Liquid nitrogen frozen cells were thawed by agitating the cryovials in a 40° C. water bath for 1-2 minutes.

In series [3] the test system is Taxus cells. The experiment in a line: Viability of Taxus cells at end of preculture period (before freezing). As to conditions: end of preculture period with the osmotic agent, not frozen. It is filed as cell-based, Taxus species.
Series [4] has as its system Taxus suspension cultures (KS1A). The experiment in a line: Viability of Taxus KS1A cells at end of preculture period. Type of series: cell-based, Taxus species. Here is the method: as §1
Series [5] concerns Taxus species cell line 12-14. The experiment in a line: Cell viability and growth before and after cryopreservation, line 12-14. Type of series: cell-based. The settings on record: 3% mannitol 3 days, before freezing. Here is the method: (§2) Six to seven day old cell suspensions of each cell line were harvested and the biomass resuspended in fresh growth medium containing 3% mannitol. Cells were incubated for 3 days at room temperature and thereafter the loaded cells suspensions were incubated at 4° C. for from 3 hours. Cold acclimated cells were transferred to 4 ml cryovials containing a cold vitrification solution of ethylene glycol/sorbitol 40/30 wt %. The vitrification solution and cells were gently mixed and the vials were incubated at […] for 3 minutes. Thereafter, the cell suspensions were frozen by liquid nitrogen immersion for at least 10 minutes.
(§3) After freezing, the cells were thawed by transferring the frozen vials from liquid nitrogen to a 40° C. water bath for 1-2 minutes. Post-thaw cell viability was determined by FDA staining assay. Cells were washed 5-6 times with cold sterile 1M sorbitol media and resuspended in fresh 1 M in medium.
(§4) The cell suspensions free from toxic cryoprotectants were then each separately filtered using a buchner funnel and Whatmann 541 filter paper under sterile conditions. For each cell suspension, the filter with cells was layered on semisolid growth medium containing 0.5M sorbitol and equilibrated for 30 minutes at room temperature. Paper containing cells was transferred to solid growth medium containing 0.1M sorbitol and incubated for 24 hours. […]

Series [6] concerns Taxus species cell line 647. The experiment in a line: Cell viability and growth before and after cryopreservation, line 647. It is filed as cell-based. As to conditions: 3% mannitol 3 days, before freezing. Here is the method:
as §2, §3, §4

Series [7] deals with Taxus cells. The experiment in a line: Regrowth of Taxus cells after thawing and osmotic adjustment. It is filed as cell-based, Taxus species. As to conditions: after thawing.
In series [8] the test system is Taxus species cell line KEIR. Briefly: Cell viability and growth before and after cryopreservation, line KEIR. It is filed as cell-based. The settings on record: 3% mannitol 3 days, before freezing. Here is the method: as §2, §3, §4
The test system of series [9] is Taxus species cell line 1220. Briefly: Cell viability and growth before and after cryopreservation, line 1220. It is filed as cell-based. The settings on record: 3% mannitol 3 days, before freezing. Here is the method: as §2, §3, §4
Series [10] has as its system Taxus species cell line 12-6. The experiment in a line: Cell viability and growth before and after cryopreservation, line 12-6. The settings on record: 3% mannitol 3 days, before freezing. It is filed as cell-based. Here is the method:
as §2, §3, §4

The subject of series [11] is Taxus species cell line KS1A. Briefly: Cell viability and growth before and after cryopreservation, line KS1A. It is filed as cell-based. The settings on record: 3% mannitol 3 days, before freezing. Here is the method:
as §2, §3, §4

Series [12] deals with Taxus species cell line 1224. Briefly: Cell viability and growth before and after cryopreservation, line 1224. It is filed as cell-based. The settings on record: 3% mannitol 3 days, before freezing. Here is the method:
as §2, §3, §4

For series [13], the system named is microtubles of mammalian cells. As to conditions: cited from earlier work.
Series [14] has as its system refractory ovarian, breast and other cancers. The settings on record: clinical trials; cited from earlier work.
Series [15] relates to Taxus cells. Briefly: Regrowth of Taxus cells after thawing and osmotic adjustment. Type of series: cell-based, Taxus species. The settings on record: after thawing. Here is the method:
Cell viability was determined immediately after thawing. The summary of multiple experiments is listed below.
Six to seven day old cell suspensions in growth medium were harvested and the cell biomass resuspended in fresh growth medium containing 0.06 M, 0.12 M, 0.15 M, 0.29 M and 0.58 M sucrose. Cells were cryopreserved, frozen, thawed and osmotically adjusted accordingly. Cell viability was determined immediately after thawing.
This is another data set of the same source.

Where [16] appears, read: cryoprotectant in vitrification solution: DMSO 5%-30%, propylene glycol 15%, glycerol 20%-30%, PEG-8000 10%, ethylene glycol 20%-50%, 3% mannitol 3 days, after −196° C. storage.
Setting [17] is: cryoprotectants ethylene glycol/sorbitol 40/30 weight percent, immediately after thawing, sorbitol 0.15 M-0.8 M, sucrose 2%-20%, mannitol 0.16 M.
Setting [18] is: end of preculture with osmotic agent (sorbitol 0.15 M-0.8 M, sucrose 2%-20%, mannitol 0.16 M).

Turning to `O=C(O)[C@@H]1CCCN1` [Proline, proline], in series [1] (Taxus species), the “Recovery Viability” value is on record as less than 15%. In addition, the “Survival (Viability) Frozen” value in the series with Taxus cells [2] (Taxus species) is less than 15%. Moreover, the “Survival (Viability) Control” value with Taxus cells [3] was less than 50%. Also, the Viability in [4] (Taxus species) is 50-95%.

On to `CC(O)CO` (centres unmarked) [Propylene Glycol, propylene glycol], for which the Viability in the series with Taxus cells [2] (setting [16]) turned out to be 0%.

With `OC[C@@H](O)[C@@H](O)[C@H](O)[C@H](O)CO` [Mannitol, mannitol], the “Recovery Viability” value is on record as 40-80% in series [1] (setting [17]) and “highest percent viability” in series [1] (cryoprotectants ethylene glycol/sorbitol 40/30 weight percent, immediately after thawing, sorbitol 0.15 M-0.8 M, sucrose 2%-20%, mannitol 0.16 M, listed as mannitol). Moreover, the “Viability (preculture)” value in series [5], in series [6], in series [8], in series [9], in series [10] and in series [11] was “≧95%” in each case. In addition, the “Viability (preculture)” value in series [12] is “≧95%”. For the same compound, the “Survival (Viability) Frozen” value with Taxus cells [2] is given as “highest percent viability”; in the series with Taxus cells [2] (Taxus species), 40-80%. The Survival in the series with Taxus cells [2] (1 day of preculture) is given as 50%; in the series with Taxus cells [2] (3 days of preculture) it was 40-80%; in the series on Taxus cells [2] (3 days of preculture, listed as mannitol), “significantly higher”. Besides, the Viability with Taxus cells [2] (Taxus species, 3 days, 0.16 M) is 60%; in the series with Taxus cells [2] (Taxus species, 3 days, 0.22 M), 30%; in the series with Taxus cells [2] (Taxus species, 3 days, 0.33 M) it was 30%; with Taxus cells [2] (Taxus species, 3 days, 0.44 M), 20%; in series [4] (setting [18]), 75-95%. The Regrowth result is given as “vigorous” in the series with Taxus cells [7] (0.16 M mannitol preculture 3 days), “slight” in the series with Taxus cells [7] (0.22 M mannitol preculture 3 days), “slight” with Taxus cells [7] (0.33 M mannitol preculture 3 days) and “slight” in the series on Taxus cells [7] (0.44 M mannitol preculture 3 days). For the same compound, the “Survival (Viability) Control” value in the series with Taxus cells [3] is on record as 50-95%.

For the compound `OCCO` [Ethylene Glycol, ethylene glycol], the Viability was 25%-80% in the series on Taxus cells [2] (setting [16]) and “highest viability” in the series on Taxus cells [2] (cryoprotectant in vitrification solution: DMSO 5%-30%, propylene glycol 15%, glycerol 20%-30%, PEG-8000 10%, ethylene glycol 20%-50%, 3% mannitol 3 days, after −196° C. storage, listed as ethylene glycol).

Take `CC(=O)O[C@H]1C(=O)[C@@]2(C)[C@H]([C@H](OC(=O)c3ccccc3)[C@]3(O)C[C@H](OC(=O)[C@H](O)[C@@H](NC(=O)c4ccccc4)c4ccccc4)C(C)=C1C3(C)C)[C@]1(OC(C)=O)CO[C@@H]1C[C@@H]2O` [taxol]: the “inhibition of the polymerization of microtubles” value in series [13] is “effectively inhibits”. In addition, the clinical efficacy result in [14] is “extremely effective”.

As to `OC[C@@H](O)[C@@H](O)[C@H](O)[C@@H](O)CO` [Sorbitol, sorbitol], the “Recovery Viability” value in series [1] (setting [17]) was 30-70%. In addition, the “Survival (Viability) Frozen” value in the series with Taxus cells [2] (Taxus species) is 30-70%. Besides, the Regrowth entry was “none” in the series on Taxus cells [7] (0.15 M sorbitol pretreatment); “vigorous” with Taxus cells [7] (0.22 M sorbitol pretreatment); “vigorous” in the series on Taxus cells [7] (0.33 M sorbitol pretreatment); “vigorous” in the series with Taxus cells [7] (0.44 M sorbitol pretreatment); “slight” in the series with Taxus cells [7] (0.80 M sorbitol pretreatment). In addition, the “Survival (Viability) Control” value with Taxus cells [3] is 50-95%. Moreover, the Viability in series [4] (setting [18]) is reported as 50-95%.

For `OC[C@H]1O[C@H](O[C@H]2O[C@H](CO)[C@@H](O)[C@H](O)[C@H]2O)[C@H](O)[C@@H](O)[C@@H]1O` [Trehalose, trehalose], the “Survival (Viability) Frozen” value with Taxus cells [2] (Taxus species) is on record as less than 15%. The “Survival (Viability) Control” value with Taxus cells [3] is 50-95%.

For `OC[C@H]1O[C@@](CO)(O[C@H]2O[C@H](CO)[C@@H](O)[C@H](O)[C@H]2O)[C@@H](O)[C@@H]1O` [Sucrose, sucrose], in [1] (Taxus species), the “Recovery Viability” value was <10-40%. Moreover, the “Survival (Viability) Frozen” value in the series with Taxus cells [2] (Taxus species) is listed as 20-50%. The “Survival (Viability) Control” value with Taxus cells [3] is recorded as 50-95%. Moreover, the Regrowth entry in the series with Taxus cells [15] (0.06 M sucrose pretreatment), in the series on Taxus cells [15] (0.12 M sucrose pretreatment), with Taxus cells [15] (0.15 M sucrose pretreatment), in the series with Taxus cells [15] (0.29 M sucrose pretreatment) and in the series with Taxus cells [15] (0.58 M sucrose pretreatment) was “slight” throughout. Moreover, the Viability in series [4] (Taxus species) is given as 50-95%.

Consider `C[S+](C)[O-]` [DMSO, dimethylsulfoxide], for which the Viability result with Taxus cells [2] (setting [16]) is “≦15%”.

In the case of PEG-8000, the Viability in the series on Taxus cells [2] is listed as 0%.

On to `OCC(O)CO` [Glycerol, glycerol], for which the Viability in the series with Taxus cells [2] (setting [16]) is reported as 0%.
